Measured values: paper PMC10803289, “Transport and inhibition mechanism of the human SGLT2–MAP17 glucose transporter” (Nature Structural & Molecular Biology, 2023)
Where “and” joins values, the source holds several entries; their conditions need not be identical. Equal values may be shown once.

Assays:
[1] = tested on: nontransfected Expi293 cells (Mock); assay: Nonspecific binding to crude membrane of nontransfected cells (Mock); design: species or system human; details: 30 nM canagliflozin; Mock membrane
Description: To examine the inhibition of binding to the crude membrane, mammalian Expi293 cells were co-transfected with the hMAP17 and hSGLT2 plasmids, as described. The cells were collected and disrupted by sonication in a hypotonic buffer (50 mM HEPES–NaOH (pH 7.5), 10 mM KCl and protease inhibitor cocktail) or Na^+-free hypotonic buffer (50 mM Tris–HCl (pH 7.5), 10 mM KCl and protease inhibitor cocktail). The cell debris were removed by centrifugation (2,000g, 5 min, 4 °C). The membrane fraction was collected by ultracentrifugation (112,000g, 30 min, 4 °C) and stored at −80 °C before use. The crude membrane (250 μg per sample) was incubated with SGLT2 inhibitor in an assay buffer (100 mM NaCl and 10 mM HEPES/Tris, pH 7.4) or Na^+-free assay buffer (100 mM choline chloride and 10 mM HEPES/Tris, pH 7.4) at room temperature for 2 h. Reactions were terminated by filtration through a GF/C filter plate (Corning) presoaked in assay buffer containing 0.1% bovine serum albumin. The sample in the filter plate was washed three times with the assay buffer and eluted with acetonitrile: water (80:20, v/v). The extract solution from the filter plate was diluted with water containing candesartan as an internal standard, and the SGLT2 inhibitor concentration was quantified via LC–MS/MS.
Nonspecific binding was measured using the crude membrane of nontransfected Expi293 cells. Specific binding was calculated by subtracting nonspecific binding from the binding of hSGLT2-expressing cells. Specific binding was normalized to hSGLT2 protein expression levels, measured via FSEC. The equilibrium dissociation constant (Kd) and maximum number of binding sites (Bmax) were calculated via nonlinear regression in GraphPad Prism 8.4.3. The specific binding of the hSGLT2 mutants was normalized to the Bmax of WT hSGLT2.
The concentrations of the extract solution from the filter plate and of the cell lysate were quantified using a tandem mass spectrometry QTRAP6500 System (SCIEX) coupled with an ACQUITY UPLC system (Waters) using the internal standard method. Mobile phases A and B used 10 mM of ammonium bicarbonate and acetonitrile, respectively.

[2] = tested on: β-glucosidase in the intestine; design: method as in PMID 21358697; details: O-glucoside hydrolyzed by β-glucosidase in the intestine; cited from earlier work
hSGLT2 D201A = biological target: T1, hSGLT2 D201A (Homo sapiens, UniProt P31639, D201A); assay: α-MG uptake in HEK293 cells, D201A mutant; assay type: cell-based; design: expressed in transfected cells
T1 sequence (P31639 1-672 D201A): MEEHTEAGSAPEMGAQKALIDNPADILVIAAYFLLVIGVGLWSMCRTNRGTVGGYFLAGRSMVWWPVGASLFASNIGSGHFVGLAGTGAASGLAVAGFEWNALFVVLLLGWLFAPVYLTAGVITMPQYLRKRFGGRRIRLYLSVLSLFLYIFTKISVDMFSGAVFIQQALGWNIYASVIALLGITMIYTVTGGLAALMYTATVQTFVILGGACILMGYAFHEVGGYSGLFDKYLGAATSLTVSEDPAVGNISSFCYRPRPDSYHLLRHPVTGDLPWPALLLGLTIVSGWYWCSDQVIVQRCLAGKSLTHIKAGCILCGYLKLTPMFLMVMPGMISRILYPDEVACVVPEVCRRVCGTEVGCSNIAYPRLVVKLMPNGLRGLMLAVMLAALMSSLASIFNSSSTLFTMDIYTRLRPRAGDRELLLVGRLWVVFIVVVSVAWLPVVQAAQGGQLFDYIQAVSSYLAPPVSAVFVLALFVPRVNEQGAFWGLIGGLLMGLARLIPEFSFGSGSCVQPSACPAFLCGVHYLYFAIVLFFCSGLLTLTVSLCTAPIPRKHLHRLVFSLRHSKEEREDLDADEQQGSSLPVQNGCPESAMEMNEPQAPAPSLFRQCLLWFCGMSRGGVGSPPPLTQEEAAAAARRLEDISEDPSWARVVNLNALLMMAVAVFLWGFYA
T1 sequence (Q13113 1-114 partner): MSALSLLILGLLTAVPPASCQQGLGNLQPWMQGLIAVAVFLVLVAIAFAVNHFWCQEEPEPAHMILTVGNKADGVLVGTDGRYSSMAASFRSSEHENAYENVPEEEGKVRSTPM
Description: hSGLT2 complementary DNA and human MAP17 cDNA were synthesized and codon-optimized for expression in human cell lines. Both cDNAs were cloned into the pcDNA3.4 vector. The hSGLT2 sequence was fused with an N-terminal signal sequence from human trypsinogen 1, a His10 tag, and sfGFP, followed by a human rhinovirus 3C protease (HRV3C protease) recognition site. Point mutations were introduced into this construct using site-directed mutagenesis. These plasmids were utilized for all experimental procedures conducted in this study. […]
Cell lysates were deproteinized by adding acetonitrile containing candesartan as the internal standard. The α-MG concentration was quantified via liquid chromatography–tandem mass spectrometry (LC–MS/MS) using the internal standard method.
Cellular protein content was determined using a bicinchoninic acid protein assay kit (Thermo Fisher Scientific). The uptake of α-MG was expressed as the ratio of concentration in the cells (in pmol per mg protein) to concentration in the medium (in pmol μl^−1); this is known as the cell-to-medium ratio (in μl per mg protein).
In the inhibition study, the cell-to-medium ratio of cells transfected with the empty vector was used as the background. The specific α-MG uptake was calculated by subtracting this background from the total cell-to-medium ratio and normalized to the uptake achieved without the inhibitor. […]

Structure (SMILES): Cc1ccc([C@@H]2O[C@H](CO)[C@@H](O)[C@H](O)[C@H]2O)cc1Cc1ccc(-c2ccc(F)cc2)s1 [Canagliflozin]
- Canagliflozin binding (% of hSGLT2) [1]: 2.562 % of hSGLT2 and 2.489 % of hSGLT2 and 1.993 % of hSGLT2

Structure (SMILES): O=C(CCc1ccc(O)cc1)c1c(O)cc(O)cc1O[C@@H]1O[C@H](CO)[C@@H](O)[C@H](O)[C@H]1O [Phlorizin]
- metabolic stability [2]: poor

Structure (SMILES): CO[C@H]1O[C@H](CO)[C@@H](O)[C@H](O)[C@H]1O [α-MG, α-methyl-D-glucopyranoside]
- uptake of α-MG (in words) (hSGLT2 D201A; D201A mutant): No clear uptake
- α-MG uptake (hSGLT2 D201A; Fig. 3h, D201A): 6.25 μL/mg-protein and 10.67 μL/mg-protein and 6.52 μL/mg-protein
